What was measured:
[1] = Molar enthalpy of transition or fusion; conditions: Crystal; DSC
[2] = molar heat capacity at constant pressure; conditions: 101.33 kPa, Crystal, Small sample (50 mg) DSC
[3] = Crystal; DTA

O.O.O.O.O.O.[Cl-].[Cl-].[Mg+2] [magnesium chloride hexahydrate]
Conditions	Molar enthalpy of transition or fusion [kJ/mol]	Normal melting temperature [°C]
[1]	34.3	–
[3]	–	117.5

[2]
Conditions	molar heat capacity at constant pressure [J/K/mol]
298.15 K	336.4
299.15 K	336.1
300.15 K	336.2
301.15 K	336.7
302.15 K	337.2
303.15 K	337.8
304.15 K	338.3
305.15 K	338.8
306.15 K	339.3
307.15 K	339.8
308.15 K	340.3
309.15 K	340.9
310.15 K	341.4
311.15 K	342
312.15 K	342.5
313.15 K	343
314.15 K	343.5
315.15 K	344.1
316.15 K	344.6
317.15 K	345.2
318.15 K	345.7
319.15 K	346.3
320.15 K	346.9
321.15 K	347.4
322.15 K	348
323.15 K	348.5
324.15 K	349.1
325.15 K	349.6
326.15 K	350.1
327.15 K	350.7
328.15 K	351.3
329.15 K	351.8
330.15 K	352.4
331.15 K	353
332.15 K	353.6
333.15 K	354.2
334.15 K	354.8
335.15 K	355.4
336.15 K	355.9
337.15 K	356.5
338.15 K	357.1
339.15 K	357.8
340.15 K	358.4
341.15 K	359.1
342.15 K	359.7
343.15 K	360.3
344.15 K	360.9
345.15 K	361.5
346.15 K	362.2
347.15 K	362.9
348.15 K	363.6
349.15 K	364.3
350.15 K	365
351.15 K	365.6
352.15 K	366.3
353.15 K	367
354.15 K	367.8
355.15 K	368.6
356.15 K	369.3
357.15 K	370.1
358.15 K	370.8
359.15 K	371.7
360.15 K	372.4
361.15 K	373.3
362.15 K	374.2
363.15 K	375.1
364.15 K	376
365.15 K	377
366.15 K	377.9
367.15 K	379
368.15 K	380
369.15 K	381.1
370.15 K	382.1
371.15 K	383.3
372.15 K	384.4
373.15 K	385.6
374.15 K	386.8
375.15 K	388.1
376.15 K	389.3
377.15 K	390.6
378.15 K	392
379.15 K	393.4
380.15 K	394.9
381.15 K	396.4
382.15 K	397.8
383.15 K	399.4
384.15 K	401.3
385.15 K	403.3
386.15 K	405.5
387.15 K	409.7
388.15 K	418.7
389.15 K	451.6
